Laboratory results as given in US10617763B2, “Compositions and methods for the treatment of presbyopia” (Presbyopia Therapies, LLC, priority 2013, dated 2020).
Where “and” joins values, the source holds several entries; their conditions need not be identical. Equal values may be shown once. Read-outs that look alike come from different tables or passages of the source.

Key:
[1] = system: eye; test: Effect of concentration of aceclidine, brimonidine, guanfacine, fadolmidine, tropicamide and additives (Example 3); assay type: in vivo, human
Protocol: All percentages are w/v. Scores for nasal congestion, stinging initial, stinging, 3 min, redness initial, redness 15 min, whitening, pain and overall are out of 4.
“pt” reflects size of print materials, 4 being equivalent to 20/20 vision and 3 to 20/15 vision.
D/C stands for discontinued after eye washing due to intolerable stinging.
(§1) All baseline vision data was based on vision corrected with distance contact lenses.
AB4T and AB6T were repeated both monocularly and binocularly.

[2] = system: eye; test: Effect of concentration of aceclidine and tropicamide, topical instillation (Example 2); assay type: in vivo, human
Description: as §1

[3] = system: eye; test: Modulation of aceclidine concentrations in a preferred embodiment (Example 6); assay type: in vivo, human
Protocol: Example 6 Modulation of Aceclidine Concentrations in a Preferred Embodiment
For 1.35% w/v aceclidine— • Stinging on topical instillation 0.25/4.0 (lasting about 2-5 seconds); • Induced redness at 10 minutes: 1.0 to 1.5/4.0; • Induced redness at 30 minutes: 0.0 to 0.25/4.0; • Comfort: very high. • Wetting: very high, the eye maintaining sensation of improved wetting for most of a 24 hour period after a single topical instillation. • Depth of Focus distance: excellent. • Depth of Focus near: excellent.
In testing the above formulations on several subjects it was discovered that there is a slight range in clinical effect depending on the concentration of aceclidine, where 1.35%-1.55% w/v aceclidine is preferred, but for which 1.35% w/v and 1.45% w/v confer the desired benefits on most subjects.
Further, it is discovered that the clinical effect of 1.35% w/v aceclidine can be improved when instilled as follows: […]

[4] = system: emmetrope over the age of 45; test: Effects of pilocarpine and aceclidine with or without tropicamide and carrier on near and distance vision (FIG. 1); assay type: in vivo, human
Description: Subject is an emmetrope over the age of 45 with a baseline near vision of 20.100 and baseline distance vision of 20.20. Topical administration to the eye of 1% w/v pilocarpine in saline solution results in an improvement of near vision to 20.40 (8a), however this improvement comes at the expense of a reduction in distance vision to 20.100 (8b). […] A proper drug carrier can also have a beneficial effect.

[5] = system: eye; settings: for indoor night vision: pH 7.5; for dimming: pH 7.0
Description: However, because α-2 agonists are shifted to their ionized equilibrium an acidic pH is somewhat offset by the fact such agonists exert greater affect at neutral or alkaline pH. Therefore each α-2 agonist has a preferred pH range depending on its lipophilicity and pKa value when added to the inventive compositions with aceclidine.

[6] = Stability of aceclidine in cold chain storage, HPLC (Example 10); assay type: physicochemical; settings: Example 10 composition
Protocol: Example 10 Stabile Aceclidine Formulations
20 samples of the above composition were divided evenly and stored at 25° C. and 4° C. Prior to storage, initial concentrations of aceclidine were measured using […] (“HPLC”). The amount of aceclidine in each solution was calculated by the area under the principal peak compared to a reference solution of aceclidine. Samples were then subject to storage for 3 months. Aceclidine measurements were taken at 1, 2 and 3 months.

[7] = system: presbyopic subjects; test: Effect of aceclidine on vision of subjects aged 47 to 67 years (Example 1); assay type: in vivo, human; settings: for L Post Dist / L Post Near / R Post Dist / R Post Near: Post Gtt 15″; for L Post Dist: left eye distance vision; for L Post Near: left eye near vision; for R Post Dist: right eye distance vision; for R Post Near: right eye near vision; for Effect: duration of effect
Protocol: Example 1 Effect of Aceclidine on Vision of Subjects Aged 47 to 67 Years
As aceclidine is an […], the clinical effectiveness may vary with different ratios. For the present studies a nearly exact 50:50 ratio of stereoisomers was measured as best determined by polarimetry.
After administration of the composition all subjects experienced an improvement in their near vision that lasted from 7 to 12 hours.

[8] = system: eye; settings: cited from earlier work
[9] = system: eye; test: Compositions containing mannitol with various nonionic surfactants (Example 15, Table 10); parameters: species or system human; settings: in vivo
Description: Example 15. Use of a Compound Containing Mannitol with Various Nonionic Surfactants Compositions
Of those tested only Brij® 35 was marginal due to the significant corneal irritation, hyperemia and […] that resulted.
Duration was excellent for each nonionic surfactant tested.

[10] = aceclidine 1.1% w/v plus 0.125% w/v tropicamide (subjects 4 and 5)
[11] = aceclidine 1.5% w/v, same vehicle, one subject

## CC(=O)OC1CN2CCC1CC2 (racemic) [Aceclidine, aceclidine]
[1]; aceclidine 1.25% w/v (not shown)
  near vision improvement: 20.25-20.30
[1]; aceclidine 1.55% w/v
  duration of corrected near and distance vision to 20.20 or better: at least 6 hours
[1]; aceclidine 1.55% w/v, 30 minutes after topical instillation
  size of the pupil: about 1.63 mm
[1]; in vivo
  duration (hrs): about 7.5 hrs
[2]; duration of the effect
  Time (hr): at least 10 hr
[2]; pupil size, both eyes, 1 hour after topical instillation, baseline pupil 3 mm photopic, 5 mm mesopic
  Miosis (OU) (1 hr): 1.63 mm
[3]; 1.35% w/v aceclidine
  Comfort: very high
  Depth of Focus distance: excellent
  Depth of Focus near: excellent
[3]; 1.35% w/v aceclidine in the preferred embodiment of Example 6, lasting about 2-5 seconds
  Stinging on topical instillation: 0.25 /4.0
[4]; 1.55% w/v aceclidine in saline solution
  time period of near vision improvement: 6 h
[4]; aceclidine in carrier plus 0.042% w/v tropicamide
  near vision: 20.15
[4]; aceclidine in carrier: 5.5% HPβCD, 0.75% CMC, 0.25% NaCl, 0.01% BAK
  near vision: better than 20.20
[4]; miotic in saline solution (1% w/v pilocarpine; 1.55% w/v aceclidine), baseline distance vision 20.20
  distance vision: without any effect on the baseline distance vision
[4]; miotic in saline solution (1% w/v pilocarpine; 1.55% w/v aceclidine), baseline near vision 20.100
  near vision: 20.40
[5]; with further inclusion of a cycloplegic agent
  anterior chamber shallowing: 0.04 mm
[6]
  aceclidine remaining, 4° C., 1 month: 93%
  aceclidine remaining, 4° C., 2 months: 92%
  aceclidine remaining, 4° C., 3 months: 88%
  aceclidine remaining, 4° C., Initial: 100%
  aceclidine remaining, 25° C., 1 month: 92%
  aceclidine remaining, 25° C., 2 months: 75%
  aceclidine remaining, 25° C., 3 months: 50%
[6]; pH about 4.75
  aceclidine remaining, 25° C., Initial: 100%
[7]; [10]
  L Post Dist: 20.15 and 20.20
  L Post Near: 20.15 and 20.25
  R Post Dist: 20.15 and 20.20
  R Post Near: 20.20 and 20.25
  Effect: 12.00 h and 7.00 h
[7]; [11]
  L Post Dist: 20.20 (2×) and 20.30 and 20.25 (2×)
  L Post Near: 20.15 (3×) and 20.30 and 20.20
  R Post Near: 20.15 (3×) and 20.20 and 20.25
  Effect: 8.00 h (4×) and 9.00 h
[7]; aceclidine 1.5% w/v in 5.5% HPβCD, 0.75% CMC, 0.25% NaCl, 0.01% BAK, one subject
  R Post Dist: 20.20 (3×) and 20.25 (2×)

## Brc1c(NC2=NCCN2)ccc2nccnc12 [brimonidine]
[8]; brimonidine 0.20% w/v (Alphagan®) twice daily
  rebound redness, patients: 25%
[8]; brimonidine 0.20% w/v topically for night vision, within four weeks of use
  tachyphylaxis of pupil modulation, treated subjects: ~100%

## CC[C@@H]1C(=O)OC[C@@H]1Cc1cncn1C [pilocarpine]
[8]; pilocarpine instilled monocularly
  distance blur: 2-3 lines
[8]; upon instillation of 1.0% pilocarpine, most subjects
  pupil size: ≥ 2.3 mm

## Poloxamer 188
[9]
  Redness 1 hr: 0.25-2.5
  Stinging: 0-2

## Poloxamer 407
[9]
  Redness 1 hr: 1
  Stinging: 0.5

## Polyoxyl 35 castor oil
[9]
  Redness 1 hr: 0.25
  Stinging: 0

## Polysorbate 80
[9]
  Redness 1 hr: 0.5
  Stinging: 0.25

## Tyloxapol
[9]
  Redness 1 hr: 0.25-2.5
  Stinging: 0-2

## tropicamide
[5]; 0.035% w/v tropicamide in 1.55% w/v aceclidine composition
  indoor night vision: slight dimming
[5]; 0.040% w/v tropicamide in 1.53% or 1.45% w/v aceclidine composition
  dimming: moderate dimming
[5]; 0.042% w/v tropicamide in 1.55% w/v aceclidine composition
  indoor night vision: normal indoor night vision
[5]; 0.044% w/v tropicamide in 1.53% or 1.45% w/v aceclidine composition
  dimming: dimming became almost undetectable
[5]; tropicamide 0.01% w/v with aceclidine
  brow ache: slightly reduce brow ache
[5]; tropicamide 0.030% w/v with aceclidine
  brow ache: further reduce brow ache
[5]; tropicamide 0.04% to about 0.07% w/v with aceclidine
  brow ache: completely eliminate brow ache
